Results: patent US20260306640A1, “TECHNOLOGIES TARGETING CELL STATES” (Auron Therapeutics, Inc., priority 2023, published 2026)

Legend:
KAT2A = KAT2A (Homo sapiens, UniProt Q92830); assay: KAT2A degradation, Western Blot (Jess), NCI-H1048 cells; type: cell-based; parameters: degrader, Western blot (Jess); settings: NCI-H1048 cells, KAT2A, 24 h, Western Blot, vs DMSO; read-out: KAT2A NCI-H1048 DC50
Procedure: (§1) MOLM-13 cells or NCI-H1048 cells were used for Western Blot analysis of KAT2A degradation. KAT2B degradation can be measured in a similar manner with NCI-H1048 cells.
(§2) H1048 cells were maintained at 37° C. in 5% CO2 and 90% humidity in HITES medium with 5% fetal bovine serum (FBS). HITES medium was […] with the following additions: 0.005 mg/ml Insulin, 0.01 mg/ml Transferrin, 30 nM Sodium selenite, 10 nM Hydrocortisone, 10 nM beta-estradiol, and extra 2 mM L-glutamine (for final concentration of 4.5 mM). Cells were plated in full media at 1 million cells/2 mL in a 6-well tissue culture treated plate with or without compounds for 24 h at 37° C. in 5% CO2.
(§3) MOLM-13 cells or NCI-H1048 cells were washed with PBS, then lysed with RIPA buffer containing 1×protease and phosphatase inhibitors (SantaCruz Biotechnologies Cat #sc-24948A). Protein was isolated by centrifugation at 12,000×g for 10 minutes at 4° C. and supernatant was collected. Protein was quantified via Bradford assay. Samples were diluted to 4 μg lysate in 16 μL RIPA buffer and then 4 μL of Jess Sample Buffer. Samples were heated at 95° C. for 5 minutes. Samples were loaded onto 12-230 kDa Jess™ Separation Module, 8×25 capillary cartridges (SM-W004, Biotechne). Antibodies loaded were: Primary antibody for KAT2A (GCN5L2 (C26A10) Rabbit mAb (3305, CST)) and for KAT2B (PCAF (C14G9)) Rabbit mAb (3378, CST) at 1:1000 and Anti-Rabbit Detection Module for Jess™ (Cat No #DM-001, Biotechne). Signal was detected by chemiluminescence.
(§4) DC50 values were determined from percent reduction of protein as compared to the DMSO control.

KAT2B = KAT2B (Homo sapiens, UniProt Q92831); assay: KAT2B degradation, Western Blot (Jess), NCI-H1048 cells; type: cell-based; parameters: degrader, Western blot (Jess); settings: NCI-H1048 cells, KAT2B, 24 h, Western Blot, vs DMSO; read-out: KAT2B NCI-H1048 DC50
Procedure: as §1, §2, §3, §4

KAT2A, sequence (Q92830 whole entry): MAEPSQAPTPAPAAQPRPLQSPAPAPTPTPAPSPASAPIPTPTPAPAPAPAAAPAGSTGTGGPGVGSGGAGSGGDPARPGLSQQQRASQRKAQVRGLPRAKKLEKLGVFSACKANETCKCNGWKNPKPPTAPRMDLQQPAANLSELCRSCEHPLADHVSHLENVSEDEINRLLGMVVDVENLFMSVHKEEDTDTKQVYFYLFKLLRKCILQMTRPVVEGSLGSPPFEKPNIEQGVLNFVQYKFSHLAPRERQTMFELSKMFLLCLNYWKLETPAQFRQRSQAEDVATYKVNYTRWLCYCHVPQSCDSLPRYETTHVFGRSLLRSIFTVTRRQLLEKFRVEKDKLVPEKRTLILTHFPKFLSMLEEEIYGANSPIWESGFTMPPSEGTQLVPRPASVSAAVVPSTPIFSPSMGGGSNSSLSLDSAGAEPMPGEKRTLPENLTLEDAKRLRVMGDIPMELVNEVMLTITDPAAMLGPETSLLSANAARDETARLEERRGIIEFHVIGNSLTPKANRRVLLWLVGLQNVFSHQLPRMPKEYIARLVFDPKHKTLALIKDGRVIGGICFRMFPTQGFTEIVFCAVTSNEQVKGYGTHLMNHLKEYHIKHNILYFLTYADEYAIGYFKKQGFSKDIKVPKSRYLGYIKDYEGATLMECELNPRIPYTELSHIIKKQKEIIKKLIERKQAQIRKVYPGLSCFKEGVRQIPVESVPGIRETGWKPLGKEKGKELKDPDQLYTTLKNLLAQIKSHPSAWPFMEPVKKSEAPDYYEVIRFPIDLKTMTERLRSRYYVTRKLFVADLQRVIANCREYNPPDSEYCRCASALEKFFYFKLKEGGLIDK
KAT2B, sequence (Q92831 whole entry): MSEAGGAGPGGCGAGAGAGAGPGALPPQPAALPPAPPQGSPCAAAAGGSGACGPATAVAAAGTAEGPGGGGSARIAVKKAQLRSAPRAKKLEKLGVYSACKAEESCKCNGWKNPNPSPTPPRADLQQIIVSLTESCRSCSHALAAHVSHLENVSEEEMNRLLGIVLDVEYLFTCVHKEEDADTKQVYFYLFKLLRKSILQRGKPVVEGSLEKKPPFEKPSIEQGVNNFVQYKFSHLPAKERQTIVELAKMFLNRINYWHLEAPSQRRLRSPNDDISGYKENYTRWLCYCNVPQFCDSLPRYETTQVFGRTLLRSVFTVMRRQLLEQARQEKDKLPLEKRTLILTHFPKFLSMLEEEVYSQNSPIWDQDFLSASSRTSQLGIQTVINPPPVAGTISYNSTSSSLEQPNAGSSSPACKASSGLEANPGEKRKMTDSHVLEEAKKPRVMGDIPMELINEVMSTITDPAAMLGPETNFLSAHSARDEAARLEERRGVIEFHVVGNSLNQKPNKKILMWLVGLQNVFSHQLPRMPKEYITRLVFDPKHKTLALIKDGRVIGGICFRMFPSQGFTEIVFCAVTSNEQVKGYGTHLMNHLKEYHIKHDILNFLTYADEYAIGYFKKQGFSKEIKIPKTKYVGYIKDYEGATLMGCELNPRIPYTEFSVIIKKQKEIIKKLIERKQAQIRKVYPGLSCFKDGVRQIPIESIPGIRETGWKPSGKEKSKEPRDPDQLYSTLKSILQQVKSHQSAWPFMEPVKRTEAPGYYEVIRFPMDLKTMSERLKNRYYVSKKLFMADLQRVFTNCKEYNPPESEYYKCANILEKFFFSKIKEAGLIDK

SMILES | DC50 (KAT2A) | DC50 (KAT2B)
CN1C[C@H](Nc2cnn(C)c(=O)c2Br)C[C@H](c2ccc(C(=O)N3CC(c4ccc(C5CCC(=O)NC5=O)cc4)C3)cc2)C1 (some centres unmarked) [Compound 189] | 1 to 30 nM | > 30 nM
Cc1c(N[C@@H]2C[C@H](c3ccc(COc4ccc5c(c4)C(=O)N(C4CCC(=O)NC4=O)C5=O)cc3)CN(C)C2)cnn(C)c1=O (some centres unmarked) [Compound 192] | < 1 nM | > 30 nM
CN1C[C@H](Nc2cnn(C)c(=O)c2Cl)C[C@H](c2ccc(C(=O)N3CC(c4cccc(C5CCC(=O)NC5=O)c4)C3)cc2)C1 (some centres unmarked) [Compound 193] | 1 to 30 nM | > 30 nM
CN1C[C@H](Nc2cnn(C)c(=O)c2Cl)C[C@H](c2ccc(CN3CC(c4cccc(C5CCC(=O)NC5=O)c4)C3)cc2)C1 (some centres unmarked) [Compound 194] | 1 to 30 nM | > 30 nM
CN1C[C@H](Nc2cnn(C)c(=O)c2Br)C[C@H](c2ccc(C(=O)N3CC(c4ccc5c(c4)C(=O)N(C4CCC(=O)NC4=O)C5=O)C3)cc2)C1 (some centres unmarked) [Compound 197] | 1 to 30 nM | > 30 nM
CN1C[C@H](Nc2cnn(C)c(=O)c2Cl)C[C@H](c2ccc(C(=O)N3CC(c4ccc5c(c4)C(=O)N(C4CCC(=O)NC4=O)C5=O)C3)cc2)C1 (some centres unmarked) [Compound 198] | 1 to 30 nM | > 30 nM
CN1C[C@H](Nc2cnn(C)c(=O)c2Br)C[C@H](c2ccc(C(=O)N3CCN(c4cccc5c4oc(=O)n5C4CCC(=O)NC4=O)CC3)cc2)C1 (some centres unmarked) [Compound 201] | < 1 nM | 1 to 30 nM
CN1C[C@H](Nc2cnn(C)c(=O)c2Br)C[C@H](c2ccc(CN3CC(c4ccc5c(c4)C(=O)N(C4CCC(=O)NC4=O)C5=O)C3)cc2)C1 (some centres unmarked) [Compound 202] | 1 to 30 nM | > 30 nM
Cc1c(C2CCC(=O)NC2=O)ccc(N2CCC3(CCN(C(=O)c4ccc([C@H]5C[C@@H](Nc6cnn(C)c(=O)c6Cl)CN(C)C5)cc4)CC3)CC2)c1F (some centres unmarked) [Compound 253] | < 1 nM | 
COc1cc(N2CCC3(CCN(C(=O)c4ccc([C@H]5C[C@@H](Nc6cnn(C)c(=O)c6Cl)CN(C)C5)cc4)CC3)CC2)cc(F)c1C1CCC(=O)NC1=O (some centres unmarked) [Compound 281] | 1 to 30 nM | 
C[C@@H]1CN(c2cccc(C3CCC(=O)NC3=O)c2)C[C@H](C)N1Cc1ccc([C@H]2C[C@@H](Nc3cnn(C)c(=O)c3Cl)CN(C)C2)cc1 (some centres unmarked) [Compound 371] | 1 to 30 nM | 
CN1C[C@H](Nc2cnn(C)c(=O)c2Br)C[C@H](c2ccc(N3CCC4(CC3)CCN(c3cccc(CN5CCC(=O)NC5=O)c3)CC4)cc2)C1 [Compound 400] | 1 to 30 nM | 
CC(=O)N[C@H](C(=O)N1C[C@H](O)C[C@H]1C(=O)NCc1ccc(-c2scnc2C)cc1OCCCCNC(=O)c1ccc([C@H]2C[C@@H](Nc3cnn(C)c(=O)c3Br)CN(C)C2)cc1)C(C)(C)C [Compound 406, (2S,4R)-1-((S)-2-acetamido-3,3-dimethylbutanoyl)-N-(2-(4-(4-((3R,5R)-5-((5-bromo-1-methyl-6-oxo-1,6-dihydropyridazin-4-yl)amino)-1-methylpiperidin-3-yl)benzamido)-butoxy)-4-(4-methylthiazol-5-yl)benzyl)-4-hydroxypyrrolidine-2-carboxamide] | > 30 nM | 
Cc1ncsc1-c1ccc(CNC(=O)[C@@H]2C[C@@H](O)CN2C(=O)[C@@H](NC(=O)C2CCN(C3CCN(C(=O)c4ccc([C@H]5C[C@@H](Nc6cnn(C)c(=O)c6Br)CN(C)C5)cc4)CC3)CC2)C(C)(C)C)cc1 [Compound 410] |  | > 30 nM
Cc1nnc2c3ccccc3c(N[C@@H](C)[C@H](c3ccc(CN4CCN(c5cccc(C6CCC(=O)NC6=O)c5)CC4)cc3)N(C)C)nn12 (stereo partly drawn) [Compound 428, 3-(3-(4-(4-((1S,2S)-1-(dimethylamino)-2-((3-methyl-[1,2,4]triazolo[3,4-a]phthalazin-6-yl)amino)propyl)benzyl)piperazin-1-yl)phenyl)piperidine-2,6-dione] | > 30 nM | 
C[C@H](Nc1nn(C)c(=O)n(C)c1=O)[C@H](c1ccc(C(=O)N2CCC3(CC2)CCN(c2ccc(C4CCC(=O)NC4=O)cc2)CC3)cc1)N(C)C (stereo partly drawn) [Compound 431, 6-(((1S,2S)-1-(dimethylamino)-1-(4-(9-(4-(2,6-dioxopiperidin-3-yl)phenyl)-3,9-diazaspiro[5.5]undecane-3-carbonyl)phenyl)propan-2-yl)amino)-2,4-dimethyl-1,2,4-triazine-3,5(2H,4H)-dione] | 1 to 30 nM | 

Next, values leading:

DC50 (KAT2A) | DC50 (KAT2B) | SMILES
< 1 nM | < 1 nM | CN1C[C@H](Nc2cnn(C)c(=O)c2Br)C[C@H](c2ccc(C(=O)N3CCC4(CC3)CCN(c3ccc(C5CCC(=O)NC5=O)cc3)CC4)cc2)C1 (single isomer, unassigned) [Compound 239]
< 1 nM | < 1 nM | Cc1cc(N2CCC3(CCN(C(=O)c4ccc([C@H]5C[C@@H](Nc6cnn(C)c(=O)c6Br)CN(C)C5)cc4)CC3)CC2)cc(F)c1C1CCC(=O)NC1=O (some centres unmarked) [Compound 2-69]
1 to 30 nM | 1 to 30 nM | CN1C[C@H](Nc2cnn(C)c(=O)c2Br)C[C@H](c2ccc(C(=O)N3CCC4(CC3)CCN(c3cccc5c3C(=O)N(C3CCC(=O)NC3=O)C5=O)CC4)cc2)C1 (some centres unmarked) [Compound 17]
1 to 30 nM | > 30 nM | CN1C[C@H](Nc2cnn(C)c(=O)c2Br)C[C@H](c2ccc(CN3CC(c4cccc(C5CCC(=O)NC5=O)c4)C3)cc2)C1 (some centres unmarked) [Compound 190]
1 to 30 nM | > 30 nM | CN1C[C@H](Nc2cnn(C)c(=O)c2Br)C[C@H](c2ccc(C(=O)N3CC(c4cccc(C5CCC(=O)NC5=O)c4)C3)cc2)C1 (some centres unmarked) [Compound 191]
1 to 30 nM | > 30 nM | CN1C[C@H](Nc2cnn(C)c(=O)c2Br)C[C@H](c2ccc(CN3CC(c4ccc(C5CCC(=O)NC5=O)cc4)C3)cc2)C1 (some centres unmarked) [Compound 195]
< 1 nM | < 1 nM | CN1C[C@H](Nc2cnn(C)c(=O)c2Br)C[C@H](c2ccc(CN3CCN(c4cccc5c4oc(=O)n5C4CCC(=O)NC4=O)CC3)cc2)C1 (some centres unmarked) [Compound 196]
> 30 nM | > 30 nM | CN1C[C@H](Nc2cnn(C)c(=O)c2Cl)C[C@H](c2ccc(CN3CC(c4ccc5c(c4)C(=O)N(C4CCC(=O)NC4=O)C5=O)C3)cc2)C1 (some centres unmarked) [Compound 199]
1 to 30 nM | > 30 nM | CN1C[C@H](Nc2cnn(C)c(=O)c2Br)C[C@H](c2ccc(CN3Cc4cc5c(cc4C3)C(=O)N(C3CCC(=O)NC3=O)C5=O)cc2)C1 (some centres unmarked) [Compound 200]
< 1 nM | 1 to 30 nM | CN1C[C@H](Nc2cnn(C)c(=O)c2Cl)C[C@H](c2ccc(C(=O)N3CCC(Oc4ccc(C5CCC(=O)NC5=O)c(F)c4)CC3)cc2)C1 (some centres unmarked) [Compound 203]
> 30 nM | > 30 nM | CN1C[C@H](Nc2cnn(C)c(=O)c2Br)C[C@H](c2ccc(C(=O)N3CCN(C4CCC(N5CCC(=O)NC5=O)CC4)CC3)cc2)C1 (some centres unmarked) [Compound 204]
> 30 nM | > 30 nM | CN1C[C@H](Nc2cnn(C)c(=O)c2Br)C[C@H](c2ccc(C(=O)N3CCN(Cc4cnn(C5CCC(=O)NC5=O)c4)CC3)cc2)C1 (some centres unmarked) [Compound 205]
1 to 30 nM |  | COc1cc(N2CCC3(CCN(C(=O)c4ccc([C@H]5C[C@@H](Nc6cnn(C)c(=O)c6Br)CN(C)C5)cc4)CC3)CC2)cc(F)c1C1CCC(=O)NC1=O (some centres unmarked) [Compound 280]
< 1 nM |  | Cc1cc(N2CCC3(CCN(C(=O)c4ccc([C@H]5C[C@@H](Nc6cnn(C)c(=O)c6Br)CN(C)C5)cc4)CC3)CC2)cc(C)c1C1CCC(=O)NC1=O (some centres unmarked) [Compound 282]
> 30 nM |  | CN1C[C@H](Nc2cnn(C)c(=O)c2Br)C[C@H](c2ccc(CN3CCN(c4cncc(C5CCC(=O)NC5=O)c4)CC3)cc2)C1 (some centres unmarked) [Compound 345]
1 to 30 nM |  | C[C@@H]1CN(c2cccc(C3CCC(=O)NC3=O)c2)C[C@H](C)N1Cc1ccc([C@H]2C[C@@H](Nc3cnn(C)c(=O)c3Br)CN(C)C2)cc1 (some centres unmarked) [Compound 370]
1 to 30 nM |  | CN1C[C@H](Nc2cnn(C)c(=O)c2Br)C[C@H](c2ccc(C(=O)N3CCC4(CC3)CCN(c3ccc5c(N6CCC(=O)NC6=O)cncc5c3)CC4)cc2)C1 [Compound 375]
1 to 30 nM |  | CN1C[C@H](Nc2cnn(C)c(=O)c2Cl)C[C@H](c2ccc(CN3CCC(c4ccc5c(c4)C(=O)N(C4CCC(=O)NC4=O)C5=O)C(F)(F)C3)cc2)C1 (some centres unmarked) [Compound 392]
> 30 nM |  | CN1C[C@H](Nc2cnn(C)c(=O)c2Cl)C[C@H](c2ccc(CN3CCN(c4cccc(CN5CCC(=O)NC5=O)c4)CC3)cc2)C1 [Compound 393]
1 to 30 nM |  | Cc1nnc2c3ccccc3c(N[C@@H](C)[C@H](c3ccc(C(=O)N4CCC5(CC4)CCN(c4ccc(C6CCC(=O)NC6=O)cc4)CC5)cc3)N(C)C)nn12 (stereo partly drawn) [Compound 426, 3-(4-(9-(4-((1S,2S)-1-(dimethylamino)-2-((3-methyl-[1,2,4]triazolo[3,4-a]phthalazin-6-yl)amino)propyl)benzoyl)-3,9-diazaspiro[5.5]undecan-3-yl)phenyl)piperidine-2,6-dione]
